This data set concerns CCRIS mutagenicity, Ames/micronucleus/aberration tests. The data set is described as follows: CCRIS mutagenicity studies.
[1] abbreviates: Test System: AMES SALMONELLA TYPHIMURIUM, Strain/Indicator: TA98, Metabolic Activation: HAMSTER, LIVER, S-9, AROCLOR 1254, Method: STANDARD PLATE.
The mark [2] stands for this setting: Test System: AMES SALMONELLA TYPHIMURIUM, Strain/Indicator: TA98, Metabolic Activation: RAT, LIVER, S-9, AROCLOR 1254, Method: STANDARD PLATE.
Where [3] appears, read: Test System: AMES SALMONELLA TYPHIMURIUM, Strain/Indicator: TA100, Metabolic Activation: HAMSTER, LIVER, S-9, AROCLOR 1254, Method: STANDARD PLATE.
The mark [4] stands for this setting: Test System: AMES SALMONELLA TYPHIMURIUM, Strain/Indicator: TA100, Metabolic Activation: NONE, Method: STANDARD PLATE.
[5] abbreviates: Test System: AMES SALMONELLA TYPHIMURIUM, Strain/Indicator: TA100, Metabolic Activation: RAT, LIVER, S-9, AROCLOR 1254, Method: STANDARD PLATE.
The mark [6] stands for this setting: Test System: MOUSE LYMPHOMA, Strain/Indicator: L5178Y (TK+/TK-), Metabolic Activation: NONE, Method: SUSPENSION/PLATE.
[7] abbreviates: Test System: MOUSE LYMPHOMA, Strain/Indicator: L5178Y (TK+/TK-), Metabolic Activation: RAT, LIVER, S-9, AROCLOR 1254, Method: SUSPENSION/PLATE.
[8] abbreviates: Test System: AMES SALMONELLA TYPHIMURIUM, Strain/Indicator: TA98, Metabolic Activation: NONE, Method: STANDARD PLATE.

Calls of active or inactive are those of the source. How the calls were made is not given here.

The results in this text go back to PubChem BioAssay AID1259407 (Chemical Carcinogenesis Research Information System (CCRIS), 2018).

On to `N[C@@H](CS)C(=O)O`, for which the mutagenic call is, setting by setting: (End Point: IN VIVO MICRONUCLEUS, Test System: BONE MARROW POLYCHROMATIC ERYTHROCYTES, Species: MOUSE, Strain/Sex: DDY/MALE, Route: IP) “inactive; negative”; (Test System: AMES SALMONELLA TYPHIMURIUM, Strain/Indicator: TA92, Metabolic Activation: HOMOGENIZED V-79, Method: STANDARD PLATE) “active; positive”; (Test System: AMES SALMONELLA TYPHIMURIUM, Strain/Indicator: TA92, Metabolic Activation: NONE, Method: STANDARD PLATE) “active; positive”; (Test System: AMES SALMONELLA TYPHIMURIUM, Strain/Indicator: TA92, Metabolic Activation: RAT, KIDNEY, S-9, Method: PREINCUBATION) “active; positive”; (Test System: AMES SALMONELLA TYPHIMURIUM, Strain/Indicator: TA92, Metabolic Activation: RAT, KIDNEY, S-9, Method: STANDARD PLATE) “active; positive”; (Test System: AMES SALMONELLA TYPHIMURIUM, Strain/Indicator: TA92, Metabolic Activation: RAT, LIVER, S-9, Method: STANDARD PLATE) “active; positive”. The mutagenic call is, setting by setting: (Test System: AMES SALMONELLA TYPHIMURIUM, Strain/Indicator: TA97, Metabolic Activation: RAT, KIDNEY, S-9, Method: PREINCUBATION) “active; positive”; (Test System: AMES SALMONELLA TYPHIMURIUM, Strain/Indicator: TA97, Metabolic Activation: RAT, KIDNEY, S-9, Method: STANDARD PLATE) “active; positive”; under setting [1], “active; positive”; under setting [2], “active; positive”; under setting [3], “active; positive”; under setting [4], “active; positive”. Further, the mutagenic call runs as follows: (Test System: AMES SALMONELLA TYPHIMURIUM, Strain/Indicator: TA100, Metabolic Activation: RAT, KIDNEY, S-9, Method: PREINCUBATION) “active; positive”; (Test System: AMES SALMONELLA TYPHIMURIUM, Strain/Indicator: TA100, Metabolic Activation: RAT, KIDNEY, S-9, Method: STANDARD PLATE) “active; positive”; under setting [5], “active; positive”; (Test System: AMES SALMONELLA TYPHIMURIUM, Strain/Indicator: TA100, Metabolic Activation: RAT, LIVER, S-9, Method: STANDARD PLATE) “active; positive”; (Test System: AMES SALMONELLA TYPHIMURIUM, Strain/Indicator: TA102, Metabolic Activation: NONE, Method: STANDARD PLATE) “active; positive”; (Test System: AMES SALMONELLA TYPHIMURIUM, Strain/Indicator: TA102, Metabolic Activation: RAT, KIDNEY, S-9, Method: PREINCUBATION) “active; positive”. The mutagenic call (Test System: AMES SALMONELLA TYPHIMURIUM, Strain/Indicator: TA104, Metabolic Activation: RAT, KIDNEY, S-9, Method: PREINCUBATION) was “active; positive”; the mutagenic call (Test System: AMES SALMONELLA TYPHIMURIUM, Strain/Indicator: TA104, Metabolic Activation: RAT, KIDNEY, S-9, Method: STANDARD PLATE) was “inactive; negative”; the mutagenic call (Test System: AMES SALMONELLA TYPHIMURIUM, Strain/Indicator: TA1535, Metabolic Activation: RAT, KIDNEY, S-9, Method: PREINCUBATION) was “inactive; negative”; the mutagenic call (Test System: AMES SALMONELLA TYPHIMURIUM, Strain/Indicator: TA1537, Metabolic Activation: RAT, KIDNEY, S-9, Method: PREINCUBATION) was “inactive; negative”; the mutagenic call (Test System: CHINESE HAMSTER V-79, Strain/Indicator: V-79/6-THIOGUANINE, Metabolic Activation: NONE, Method: STANDARD PLATE) is “inactive; negative”; the mutagenic call under setting [6] was “active; positive. reevaluation of results: positive”. The mutagenic call under setting [7] is “active; positive. reevaluation of results: positive”.
As to `O=[N+]([O-])c1ccc2[nH]c3c([N+](=O)[O-])cccc3c2c1`, the mutagenic call is “active; positive” (Test System: AMES SALMONELLA TYPHIMURIUM, Strain/Indicator: TA98(NR), Metabolic Activation: NONE, Method: STANDARD PLATE); “active; positive” (Test System: AMES SALMONELLA TYPHIMURIUM, Strain/Indicator: TA98(NR), Metabolic Activation: RAT, LIVER, S-9, AROCLOR 1254, Method: STANDARD PLATE); “active; positive” under setting [8]; “active; positive” under setting [2].
`CNc1ccc2ncccc2c1N`: the mutagenic call reads like this: (Test System: AMES SALMONELLA TYPHIMURIUM, Strain/Indicator: TA98, Metabolic Activation: NONE, Method: PREINCUBATION) “inactive; negative”; (Test System: AMES SALMONELLA TYPHIMURIUM, Strain/Indicator: TA98, Metabolic Activation: RAT, LIVER, S-9, AROCLOR 1254, Method: PREINCUBATION) “inactive; negative”; (Test System: AMES SALMONELLA TYPHIMURIUM, Strain/Indicator: TA100, Metabolic Activation: NONE, Method: PREINCUBATION) “inactive; negative”; (Test System: AMES SALMONELLA TYPHIMURIUM, Strain/Indicator: TA100, Metabolic Activation: RAT, LIVER, S-9, AROCLOR 1254, Method: PREINCUBATION) “inactive; negative”.
Regarding `O=[N+]([O-])c1cnc(CO)n1CCO`, the mutagenic call is, setting by setting: under setting [4], “active; positive”; under setting [5], “active; positive”.
On to `ClCc1ccc2c(c1)-c1cccc3cccc-2c13`, for which the mutagenic call is “active; positive” under setting [8] and “active; positive” under setting [4].
Turning to `O[C@@H]1C=Cc2ccc3c(ccc4ccccc43)c2[C@H]1O`, the mutagenic call under setting [8] was “inactive; negative”, the mutagenic call under setting [2] is “active; positive”, the mutagenic call under setting [4] is “inactive; negative” and the mutagenic call under setting [5] was “active; positive”.
As for `COc1cc(-c2ccc(-[n+]3nc(-c4ccccc4)nn3-c3ccc([N+](=O)[O-])cc3)c(OC)c2)ccc1-[n+]1nc(-c2ccccc2)nn1-c1ccc([N+](=O)[O-])cc1`, the mutagenic call is “active; positive” under setting [4] and “active; positive” (Test System: AMES SALMONELLA TYPHIMURIUM, Strain/Indicator: TA100, Metabolic Activation: S-9 MIX, Method: STANDARD PLATE).
For the compound `Nc1ncnc2c1ncn2[C@H]1CC[C@@H](CO)O1`, the mutagenic call reads like this: under setting [1], “inactive; negative”; under setting [8], “inactive; negative”; under setting [2], “inactive; negative”; under setting [3], “inactive; negative”; under setting [4], “inactive; negative”; under setting [5], “inactive; negative”. Further, the mutagenic call runs as follows: (Test System: AMES SALMONELLA TYPHIMURIUM, Strain/Indicator: TA1535, Metabolic Activation: HAMSTER, LIVER, S-9, AROCLOR 1254, Method: STANDARD PLATE) “inactive; negative”; (Test System: AMES SALMONELLA TYPHIMURIUM, Strain/Indicator: TA1535, Metabolic Activation: NONE, Method: STANDARD PLATE) “inactive; negative”; (Test System: AMES SALMONELLA TYPHIMURIUM, Strain/Indicator: TA1535, Metabolic Activation: RAT, LIVER, S-9, AROCLOR 1254, Method: STANDARD PLATE) “inactive; negative”; (Test System: AMES SALMONELLA TYPHIMURIUM, Strain/Indicator: TA1537, Metabolic Activation: HAMSTER, LIVER, S-9, AROCLOR 1254, Method: STANDARD PLATE) “inactive; negative”; (Test System: AMES SALMONELLA TYPHIMURIUM, Strain/Indicator: TA1537, Metabolic Activation: NONE, Method: STANDARD PLATE) “inactive; negative”; (Test System: AMES SALMONELLA TYPHIMURIUM, Strain/Indicator: TA1537, Metabolic Activation: RAT, LIVER, S-9, AROCLOR 1254, Method: STANDARD PLATE) “inactive; negative”. For the same compound, the mutagenic call is “inactive; negative” (Test System: AMES SALMONELLA TYPHIMURIUM, Strain/Indicator: TA1538, Metabolic Activation: HAMSTER, LIVER, S-9, AROCLOR 1254, Method: STANDARD PLATE); “inactive; negative” (Test System: AMES SALMONELLA TYPHIMURIUM, Strain/Indicator: TA1538, Metabolic Activation: NONE, Method: STANDARD PLATE); “inactive; negative” (Test System: AMES SALMONELLA TYPHIMURIUM, Strain/Indicator: TA1538, Metabolic Activation: RAT, LIVER, S-9, AROCLOR 1254, Method: STANDARD PLATE); “active; positive. reevaluation of results: positive” under setting [6]; “active; positive. reevaluation of results: equivocal” under setting [7].
